Laboratory results reported in patent US12590091B2, “1H-pyrrolo[3,2-C]pyridine and 1H-pyrrolo[2,3-C]pyridine derivatives as TLR9 inhibitors for the treatment of fibrosis” (BRISTOL-MYERS SQUIBB COMPANY, priority 2020, dated 2026).

Molecular target: T1, human TLR9 (Homo sapiens, UniProt Q9NR96)
T1 construct: host or cells: HEK-Blue cells
T1 sequence (Q9NR96 26-1032): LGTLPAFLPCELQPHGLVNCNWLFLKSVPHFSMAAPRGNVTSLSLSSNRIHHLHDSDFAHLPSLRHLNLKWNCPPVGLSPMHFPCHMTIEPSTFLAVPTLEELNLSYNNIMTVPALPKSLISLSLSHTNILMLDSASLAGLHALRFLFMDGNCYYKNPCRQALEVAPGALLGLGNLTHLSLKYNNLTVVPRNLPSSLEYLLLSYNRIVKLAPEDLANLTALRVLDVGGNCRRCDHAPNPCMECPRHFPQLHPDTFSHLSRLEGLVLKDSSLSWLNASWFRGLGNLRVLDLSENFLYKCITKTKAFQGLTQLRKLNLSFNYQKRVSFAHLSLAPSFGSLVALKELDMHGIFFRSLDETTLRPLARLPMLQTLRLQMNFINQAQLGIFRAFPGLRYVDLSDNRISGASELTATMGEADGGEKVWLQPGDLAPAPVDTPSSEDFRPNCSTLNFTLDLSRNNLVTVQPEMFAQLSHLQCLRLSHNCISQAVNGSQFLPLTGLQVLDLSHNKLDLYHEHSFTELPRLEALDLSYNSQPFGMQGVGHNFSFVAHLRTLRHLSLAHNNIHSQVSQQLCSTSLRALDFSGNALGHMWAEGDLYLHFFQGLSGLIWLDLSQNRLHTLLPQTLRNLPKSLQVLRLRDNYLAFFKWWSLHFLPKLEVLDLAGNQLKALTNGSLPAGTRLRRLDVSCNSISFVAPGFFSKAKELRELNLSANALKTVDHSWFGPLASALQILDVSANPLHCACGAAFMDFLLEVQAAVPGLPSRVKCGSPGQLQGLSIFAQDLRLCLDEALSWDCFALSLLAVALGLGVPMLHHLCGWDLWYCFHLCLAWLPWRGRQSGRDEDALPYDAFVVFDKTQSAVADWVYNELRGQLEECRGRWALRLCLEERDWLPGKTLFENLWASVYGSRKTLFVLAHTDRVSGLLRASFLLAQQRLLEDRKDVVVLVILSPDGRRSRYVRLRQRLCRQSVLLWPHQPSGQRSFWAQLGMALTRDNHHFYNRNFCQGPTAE
Test: TLR9 inhibition reporter assay (HEK-Blue cells, SEAP reporter)
Format: cell-based
Conditions: HEK-Blue cells overexpressing human TLR9, stimulated with ODN2006 5 nM, 22 hour incubation
Description: TLR7/8/9 Inhibition Reporter Assays
HEK-Blue™-cells (Invivogen) overexpressing human TLR7, TLR8 or TLR9 receptors were used for screening inhibitors of these receptors using an inducible SEAP (secreted embryonic alkaline phosphatase) reporter gene under the control of the IFN-β minimal promoter fused to five NF-κB and AP-1-binding sites. Briefly, cells are seeded into Greiner 384 well plates (15000 cells per well for TLR7, 20,000 for TLR8 and 25,000 for TLR9) and then treated with test compounds in DMSO to yield a final dose response concentration range of 0.05 nM-50 μM. […] After a 22 hour incubation at 37° C., 5% CO2, SEAP levels are determined with the addition of HEK-Blue™ Detection reagent (Invivogen), a cell culture medium that allows for detection of SEAP, according to manufacturer's specifications. The percent inhibition is determined as the % reduction in the HEK-Blue signal present in wells treated with agonist plus DMSO alone compared to wells treated with a known inhibitor.

IC50 [nM]	Compound
153	Cc1nc(-c2ccc(N3CCN(Cc4ccc(Br)cc4)CC3)cc2)cc2c1cc(-c1ccc(S(C)(=O)=O)cc1)n2C [Example 113, 6-(4-(4-(4-bromobenzyl)piperazin-1-yl)phenyl)-1,4-dimethyl-2-(4-(methylsulfonyl)phenyl)-1H-pyrrolo[3,2-c]pyridine]
422	CC(C)N1CCN(Cc2ccc(-c3cc4c(cc(-c5ccc(S(C)(=O)=O)cc5)n4C)c(N4CCOCC4)n3)cc2)CC1 [Example 127, 4-(6-(4-((4-isopropylpiperazin-1-yl)methyl)phenyl)-1-methyl-2-(4-(methylsulfonyl)phenyl)-1H-pyrrolo[3,2-c]pyridin-4-yl)morpholine]
359	Cc1nc(-c2ccc(N3CC4CCC(C3)N4CC(C)C)cc2)cc2c1cc(-c1ccc(S(C)(=O)=O)cc1)n2C [Example 73, 6-(4-(8-isobutyl-3,8-diazabicyclo[3.2.1]octan-3-yl)phenyl)-1,4-dimethyl-2-(4-(methylsulfonyl)phenyl)-1H-pyrrolo[3,2-c]pyridine]
296	Cc1nc(-c2ccc(C3(O)CC4CCC(C3)N4C(C)C)cc2F)cc2c1cc(-c1ccc(S(C)(=O)=O)cc1)n2C [Example 103, (1R,3r,5S)-3-(4-(1,4-dimethyl-2-(4-(methylsulfonyl)phenyl)-1H-pyrrolo[3,2-c]pyridin-6-yl)-3-fluorophenyl)-8-isopropyl-8-azabicyclo[3.2.1]octan-3-ol]
44	COCCN1CCN(c2ccc(-c3cc4c(cc(-c5ccc(S(=O)(=O)N(C)C)cc5)n4C)c(C)n3)cc2)CC1 [Example 51, 4-(6-(4-(4-(2-methoxyethyl)piperazin-1-yl)phenyl)-1,4-dimethyl-1H-pyrrolo[3,2-c]pyridin-2-yl)-N,N-dimethylbenzenesulfonamide]
213	Cc1nc(-c2ccc(N3CCN(CC(C)C)CC3)cc2)cc2c1cc(-c1ccc(S(=O)(=O)C3CC3)cc1)n2C [Example 46, 2-(4-(cyclopropylsulfonyl)phenyl)-6-(4-(4-isobutylpiperazin-1-yl)phenyl)-1,4-dimethyl-1H-pyrrolo[3,2-c]pyridine]
6760	Cc1nc(-c2ccc(N3CCN(C(C)C)CC3)cc2)cc2c1cc(-c1ccc(S(=O)(=O)N(C)C)cc1)n2C [Example 49, 4-(6-(4-(4-isopropylpiperazin-1-yl)phenyl)-1,4-dimethyl-1H-pyrrolo[3,2-c]pyridin-2-yl)-N,N-dimethylbenzenesulfonamide]
2300	Cc1nc(-c2ccc(N3CCN(C4CCOCC4)CC3)c(F)c2F)cc2c1cc(-c1ccc(S(C)(=O)=O)cc1)n2C [Example 83, 6-(2,3-difluoro-4-(4-(tetrahydro-2H-pyran-4-yl)piperazin-1-yl)phenyl)-1,4-dimethyl-2-(4-(methylsulfonyl)phenyl)-1H-pyrrolo[3,2-c]pyridine]
25	Cc1nc(-c2cccc(N3CCN(C(C)C)CC3)c2)cc2c1cc(-c1ccc(S(C)(=O)=O)cc1)n2C [Example 67, 6-(3-(4-isopropylpiperazin-1-yl)phenyl)-1,4-dimethyl-2-(4-(methylsulfonyl)phenyl)-1H-pyrrolo[3,2-c]pyridine]
626	Cc1nc(-c2cc(F)c(N3CCN(CC(C)C)CC3)c(F)c2)cc2c1cc(-c1ccc(S(C)(=O)=O)cc1)n2C [Example 84, 6-(3,5-difluoro-4-(4-isobutylpiperazin-1-yl)phenyl)-1,4-dimethyl-2-(4-(methylsulfonyl)phenyl)-1H-pyrrolo[3,2-c]pyridine]
202	Cc1nc(-c2ccc(N3CCN(C4CCOC4)CC3)cc2)cc2c1cc(-c1ccc(S(=O)(=O)N(C)C)cc1)n2C (stereo not drawn) [Example 52, 4-(1,4-dimethyl-6-(4-(4-(tetrahydrofuran-3-yl)piperazin-1-yl)phenyl)-1H-pyrrolo[3,2-c]pyridin-2-yl)-N,N-dimethylbenzenesulfonamide]
36	Cc1nc(-c2ccc(N3CCN(C(C)C)CC3)c(F)c2)cc2c1cc(-c1ccc(S(C)(=O)=O)cc1)n2C [Example 12, 6-(3-Fluoro-4-(4-isopropylpiperazin-1-yl)phenyl)-1,4-dimethyl-2-(4-(methylsulfonyl)phenyl)-1H-pyrrolo[3,2-c]pyridine]
579	COc1ccc(-c2cc3cnc(-c4ccc(N5CCN(C(C)=O)CC5)cc4)cc3n2C)cc1OC [Example 30, 1-(4-(4-(2-(3,4-dimethoxyphenyl)-1-methyl-1H-pyrrolo[3,2-c]pyridin-6-yl)phenyl)piperazin-1-yl) ethan-1-one]
411	Cc1nc(-c2ccc(N3CCN(CC(C)C)CC3)c(F)c2)cc2c1cc(-c1ccc(S(C)(=O)=O)cc1)n2C [Example 72, 6-(3-fluoro-4-(4-isobutylpiperazin-1-yl)phenyl)-1,4-dimethyl-2-(4-(methylsulfonyl)phenyl)-1H-pyrrolo[3,2-c]pyridine]
670	Cc1nc(-c2cc(F)c(N3CCN(C4CCOCC4)CC3)cc2F)cc2c1cc(-c1ccc(S(C)(=O)=O)cc1)n2C [Example 81, 6-(2,5-difluoro-4-(4-(tetrahydro-2H-pyran-4-yl)piperazin-1-yl)phenyl)-1,4-dimethyl-2-(4-(methylsulfonyl)phenyl)-1H-pyrrolo[3,2-c]pyridine]
346	Cc1nc(-c2ccc(N3CCN(C(C)C)CC3)cc2)cc2c1cc(-c1ccc(S(=O)(=O)C3CC3)cc1)n2C [Example 42, 2-(4-(Cyclopropylsulfonyl)phenyl)-6-(4-(4-isopropylpiperazin-1-yl)phenyl)-1,4-dimethyl-1H-pyrrolo[3,2-c]pyridine]
1260	COc1nc(-c2ccc(CN3CCN(C(C)C)CC3)cc2)cc2c1cc(-c1ccc(S(C)(=O)=O)cc1)n2C [Example 126, 6-(4-((4-isopropylpiperazin-1-yl)methyl)phenyl)-4-methoxy-1-methyl-2-(4-(methylsulfonyl)phenyl)-1H-pyrrolo[3,2-c]pyridine]
2410	Cc1nc(-c2ccc(N3CCN(C4COC4)CC3)cc2)cc2c1cc(-c1ccc(S(=O)(=O)N(C)C)cc1)n2C [Example 50, 4-(1,4-dimethyl-6-(4-(4-(oxetan-3-yl)piperazin-1-yl)phenyl)-1H-pyrrolo[3,2-c]pyridin-2-yl)-N,N-dimethylbenzenesulfonamide]
136	COCCN1CCN(c2ccc(-c3cc4c(cc(-c5ccc(S(C)(=O)=O)cc5)n4C)c(C)n3)cc2F)CC1 [Example 66, 6-(3-fluoro-4-(4-(2-methoxyethyl)piperazin-1-yl)phenyl)-1,4-dimethyl-2-(4-(methylsulfonyl)phenyl)-1H-pyrrolo[3,2-c]pyridine]
1070	Cc1nc(-c2ccc(N3CCOCC3)cc2)cc2c1cc(-c1ccc(S(C)(=O)=O)cc1)n2C [Example 86, 4-(4-(1,4-dimethyl-2-(4-(methylsulfonyl)phenyl)-1H-pyrrolo[3,2-c]pyridin-6-yl)phenyl)morpholine]
146	Cc1nc(-c2ccc(N3CCN4CCCC4C3)cc2)cc2c1cc(-c1ccc(S(C)(=O)=O)cc1)n2C (stereo not drawn) [Example 63, 6-(4-(hexahydropyrrolo[1,2-a]pyrazin-2(1H)-yl)phenyl)-1,4-dimethyl-2-(4-(methylsulfonyl)phenyl)-1H-pyrrolo[3,2-c]pyridine]
543	COc1nc(-c2ccc(N3CCN(C(C)C)CC3)cc2)cc2c1cc(-c1ccc(S(C)(=O)=O)cc1)n2C [Example 119, 6-[4-(4-isopropylpiperazin-1-yl)phenyl]-4-methoxy-1-methyl-2-(4-methylsulfonylphenyl) pyrrolo[3,2-c]pyridine]
2400	Cc1nc(-c2ccc(N3CCS(=O)(=O)CC3)cc2)cc2c1cc(-c1ccc(S(C)(=O)=O)cc1)n2C [Example 85, 4-(4-(1,4-dimethyl-2-(4-(methylsulfonyl)phenyl)-1H-pyrrolo[3,2-c]pyridin-6-yl)phenyl)thiomorpholine 1,1-dioxide]
3	Cc1nc(-c2ccc(N3CCN(C4CCOCC4)CC3)c(F)c2)cc2c1cc(-c1ccc(S(C)(=O)=O)cc1)n2C [Example 71, 6-(3-fluoro-4-(4-(tetrahydro-2H-pyran-4-yl)piperazin-1-yl)phenyl)-1,4-dimethyl-2-(4-(methylsulfonyl)phenyl)-1H-pyrrolo[3,2-c]pyridine]
